Consider 34 compounds from patent publication US12240857B2 (priority 2017, dated 2025).

Each structure is given as a SMILES string.

Data set [1] deals with BDBV mucin-domain-deleted glycoprotein pseudotyped VSV. Description: microbe, parasite or virus in culture. The format is cell-based, Bundibugyo ebolavirus. Particulars: Vesicular stomatitis virus, Vero, read-out: EC50 BDBV.
A short description of another data set: in vitro. As to conditions: African green monkey, CC50.
Data set [2] deals with EBOV mucin-domain-deleted glycoprotein pseudotyped VSV. Nature of the data set: microbe, parasite or virus in culture. As to conditions: Zaire ebolavirus, Vero, read-out: EC50 EBOV. Type of data set: cell-based, Zaire ebolavirus.

By EC50 is commonly meant the midpoint of the concentration-response curve. On to `CN1CC(NC(=O)C23CC4CC(C2)CC(c2ccccc2)(C4)C3)C1` [Example A35], for which the EC50 in data set [1] amounted to 220 nM; in data set [2], 280 nM. Moreover, the CC50 in the data set “in vitro” is over 10000 nM.

With `O=C(NC1CN(Cc2ccccc2)C1)C12CC3CC(C1)CC(c1ccccc1)(C3)C2` [Example A36], the EC50 in data set [1] turned out to be 300 nM; in data set [2], 510 nM. In addition, the CC50 in “in vitro” came out at 4300 nM.

On to `CN1CC[C@@H](NC(=O)C23CC4CC(C2)CC(c2ccccc2)(C4)C3)C1` [Example A37], for which the EC50 in data set [1] came out at 240 nM; in data set [2] it was 230 nM. The CC50 in the data set “in vitro” is over 10000 nM.

With `CN1CCC[C@@H](NC(=O)C23CC4CC(C2)CC(c2ccccc2)(C4)C3)C1` [Example A38], the EC50 came out at 190 nM in data set [1] and 250 nM in data set [2]. The compound also showed a CC50 in “in vitro” of over 10000 nM.

With `CN1CC(NC(=O)CC23CC4CC(C2)CC(c2ccccc2)(C4)C3)C1` [Example A39], the EC50 in data set [1] was 210 nM; in data set [2], 510 nM. Besides, the CC50 in “in vitro” was determined as 19100 nM.

In the case of `CN1CC[C@@H](NC(=O)C23CC4CC(C)(C2)CC(c2ccccc2)(C4)C3)C1` (stereo partly drawn) [Example A41], the EC50 is 180 nM in data set [1] and 103 nM in data set [2]. Further, the CC50 in “in vitro” is 13600 nM.

`CN1CC(NC(=O)C23CC4CC(C)(C2)CC(c2ccccc2)(C4)C3)C1` (stereo not drawn) [Example A42]: the results for the EC50 in data set [1] and in data set [2] were 190 nM and 121 nM, respectively. In addition, the CC50 in “in vitro” turned out to be 13900 nM.

Consider `CC12CC3CC(C(=O)N[C@@H]4CN5CCC4CC5)(C1)CC(c1ccccc1)(C3)C2` (stereo partly drawn) [Example A44], for which the figures for the EC50 in data set [1] and in data set [2] were 190 nM and 90 nM, respectively. The compound further returned a CC50 in the data set “in vitro” of 11000 nM.

On to `CN(C)CCNC(=O)C12CC3CC(C)(C1)CC(c1ccccc1)(C3)C2` (stereo not drawn) [Example A46], for which the EC50 in data set [1] was determined as 210 nM; in data set [2] it was 180 nM. Besides, the CC50 in “in vitro” came to 13500 nM.

Consider `CC12CC3CC(C(=O)NCCN4CCOCC4)(C1)CC(c1ccccc1)(C3)C2` (stereo not drawn) [Example A48], for which the figures for the EC50 in data set [1] and in data set [2] were 2000 nM and 1040 nM, respectively. Also, the CC50 in the data set “in vitro” stood at 54900 nM.

As to `O=C(N1CCC(NCc2ccccc2)CC1)C12CC3CC(C1)CC(c1ccccc1)(C3)C2` [Example A49, N-Benzyl-1-[(3-phenyladamantan-1-yl)carbonyl]piperidin-4-amine], the EC50 in data set [1] was 290 nM; in data set [2], 210 nM. This compound had a CC50 in the data set “in vitro” of 10000 nM.

For `O=C(CC12CC3CC(CC(C3)C1)C2)N1CCC2(CCN(Cc3ccccc3)C2)C1` (stereo not drawn) [Example A50, 2-(Adamantan-1-yl)-1-{7-benzyl-2,7-diazaspiro[4.4]nonan-2-yl}ethan-1-one], the EC50 is 3300 nM in data set [1] and 2900 nM in data set [2]. Also, in the data set “in vitro”, the CC50 was determined as 54900 nM.

Regarding `O=C(CC12CC3CC(CC(C3)C1)C2)NC1CCN(Cc2ccccc2)CC1` [Example A51], the values for the concentration giving a half-maximal response (EC50) in data set [1] and in data set [2] were over 10000 nM and 9000 nM, respectively. In addition, the CC50 in “in vitro” was 10000 nM.

Turning to `O=C(CC12CC3CC(CC(C3)C1)C2)N[C@@H]1CCN(Cc2ccccc2)C1` [Example A52], the EC50 amounted to 4000 nM in data set [1] and 4900 nM in data set [2]. Further, in “in vitro”, the CC50 is over 10000 nM.

In the case of `O=C(CC12CC3CC(CC(C3)C1)C2)NCC(=O)NC1CCN(Cc2ccccc2)CC1` [Example A54], the 50% effective concentration (EC50) is 10000 nM in data set [1] and 4000 nM in data set [2]. Moreover, in the data set “in vitro”, the CC50 was over 10000 nM.

For `COC(=O)c1ccc(COc2ccccc2CN2CCC(NC(=O)CNC(=O)CC34CC5CC(CC(C5)C3)C4)CC2)cc1` [Example A55], the figures for the EC50 in data set [1] and in data set [2] were 2600 nM and 2900 nM, respectively. The compound also displayed a CC50 in the data set “in vitro” of over 10000 nM.

Consider `O=C(CC12CC3CC(CC(C3)C1)C2)NCC(=O)N[C@@H]1CCN(Cc2ccccc2)C1` [Example A56], for which the EC50 in data set [1] is 10000 nM; in data set [2], 3100 nM. This compound showed a CC50 in “in vitro” of over 10000 nM.

For the compound `COC(=O)c1ccc(COc2ccccc2CN2CC3CC2CN3C(=O)CNC(=O)CC23CC4CC(CC(C4)C2)C3)cc1` (stereo not drawn) [Example A58], the figures for the 50% effective concentration (EC50) in data set [1] and in data set [2] were 8000 nM and 650 nM, respectively. This compound yielded a CC50 in the data set “in vitro” of over 10000 nM.

For `NC1CCN(C(=O)C23CC4CC(C2)CC(c2ccccc2)(C4)C3)CC1` [Example A61], the EC50 in data set [1] came out at 80 nM; in data set [2] it was 140 nM. For the same compound, the CC50 in the data set “in vitro” is over 10000 nM.

Regarding `O=C(N1CC2CCNC2C1)C12CC3CC(C1)CC(c1ccccc1)(C3)C2` (stereo not drawn) [Example A62], the EC50 in data set [1] came to 110 nM; in data set [2], 160 nM. This compound also came in with a CC50 in “in vitro” of 30000 nM.

In the case of `O=C(N1CCC2(CCNC2)C1)C12CC3CC(C1)CC(c1ccccc1)(C3)C2` (stereo not drawn) [Example A64], the EC50 in data set [1] worked out at 180 nM; in data set [2], 710 nM. Besides, the CC50 in the data set “in vitro” was over 10000 nM.

`O=C(N1CC2CC1CN2)C12CC3CC(C1)CC(c1ccccc1)(C3)C2` (stereo not drawn) [Example A65]: the EC50 in data set [1] and in data set [2] was 90 nM in each case. The CC50 in “in vitro” is over 10000 nM.

With `O=C(N1CCCNCC1)C12CC3CC(C1)CC(c1ccccc1)(C3)C2` [Example A66], the EC50 was 100 nM in data set [1] and 160 nM in data set [2]. The same compound came in with a CC50 in “in vitro” of over 10000 nM.

Turning to `COc1ccc(C23CC4CC(CC(C(=O)NC5CCNCC5)(C4)C2)C3)cc1` [Example A67], the EC50 was 410 nM in data set [1] and 390 nM in data set [2]. Further, the CC50 in the data set “in vitro” was over 10000 nM.

For the compound `O=C(NC1CCNCC1)C12CC3CC(C1)CC(c1ccc(Cl)cc1)(C3)C2` [Example A69], the EC50 worked out at 240 nM in data set [1] and 220 nM in data set [2]. The CC50 in the data set “in vitro” turned out to be 22400 nM.

For the compound `O=C(CC12CC3CC(C1)CC(c1ccccc1)(C3)C2)NC1CCNCC1` [Example A70], the EC50 in data set [1] was 190 nM; in data set [2] it was 490 nM. For the same compound, in the data set “in vitro”, the CC50 is over 50000 nM.

For the compound `CC12CC3CC(C(=O)NC4CNC4)(C1)CC(c1ccccc1)(C3)C2` (stereo not drawn) [Example A72], the EC50 in data set [1] was 290 nM; in data set [2], 280 nM. This compound gave a CC50 in “in vitro” of 17400 nM.

For `CC12CC3(C)CC(C(=O)NC4CCNCC4)(C1)CC(c1ccccc1)(C2)C3` [Example A73], the EC50 in data set [1] was 370 nM; in data set [2], 320 nM. Also, in “in vitro”, the CC50 was found to be 13000 nM.

On to `O=C(NC1CCNCC1)C12CC3CC(C1)CC(c1ccc(O)cc1)(C3)C2` [Example A74], for which the EC50 in data set [1] is over 1000 nM; in data set [2] it was 1720 nM. Besides, in the data set “in vitro”, the CC50 came to 14000 nM.

In the case of `O=C(NC1CCNCC1)C12CC3CC(C1)CC(c1ccc(F)cc1)(C3)C2` [Example A75], the EC50 in data set [1] and in data set [2] was 300 nM throughout. Also, in the data set “in vitro”, the CC50 came to 17700 nM.

`CC12CC3CC(C(=O)N[C@H]4CC[C@@H](N)CC4)(C1)CC(c1ccccc1)(C3)C2` (stereo partly drawn) [Example A77]: the EC50 in data set [1] stood at 220 nM; in data set [2], 120 nM. Further, in “in vitro”, the CC50 was 8700 nM.

With `CC12CC3CC(C(=O)NCCN)(C1)CC(c1ccccc1)(C3)C2` (stereo not drawn) [Example A79], the EC50 came out at 290 nM in data set [1] and 260 nM in data set [2]. Moreover, in the data set “in vitro”, the CC50 is 4200 nM.

For `C[C@H]1CN(C(=O)C23CC4CC(C)(C2)CC(c2ccccc2)(C4)C3)CCN1` (stereo partly drawn) [Example A82], the values for the EC50 in data set [1] and in data set [2] were 160 nM and 130 nM, respectively. In “in vitro”, this compound returned a CC50 of 4500 nM.

Turning to `C[C@H]1CNCCN1C(=O)C12CC3CC(C)(C1)CC(c1ccccc1)(C3)C2` (stereo partly drawn) [Example A83], the results for the EC50 in data set [1] and in data set [2] were 180 nM and 100 nM, respectively. In “in vitro”, this compound gave a CC50 of 12900 nM.
